Source: US20240082238A1, “COMPOSITIONS AND METHODS FOR TREATING CANCER” (UNIVERSITY OF IOWA RESEARCH FOUNDATION, priority 2021, published 2024)

Test system: tubulin
Test: Fluorescence-based tubulin polymerization assay
Type: biochemical
Details: 3 μM
From the text: Tubulin polymerization assay. Microtubules are one of the major cytoskeleton components in the cells, and they play an essential role in the spindle formation generated by α and β tubulin polymerization. Agents targeting microtubules function through two different mechanisms. To elaborate, several compounds like taxanes (e.g., PTX) promote the assembly of microtubules and are known to stabilize the microtubes whereas other compounds such as vinca alkaloid and colchicine are known to interrupt the spindle formation via inhibiting the tubulin polymerization; thereby, destabilize the microtubules. The result of both scenarios is metaphase arrest which induces apoptosis. To test the tubulin activity, a fluorescence-based tubulin polymerization assay (Cat. No. BK011P, Cytoskeleton Inc., Denver, CO) was performed according to the manufacturer's instructions. Briefly, stock solutions of PTX and CIP2b (in DMSO) were diluted with UltraPure™ water to make a final concentration of 3 μM. […] Before starting the experiment, the 96-well plate and fluorimeter (SpectraMax M5 Microplate Reader) were pre-warmed to 37° C. […] Samples and tubulin were added to a 96-well plate, and the plate was inserted into the plate reader. Kinetic measurements started immediately, and data were collected and analyzed.

CC(=O)O[C@H]1C(=O)[C@@]2(C)[C@H]([C@H](OC(=O)c3ccccc3)[C@]3(O)C[C@H](OC(=O)[C@H](O)[C@@H](NC(=O)c4ccccc4)c4ccccc4)C(C)=C1C3(C)C)[C@]1(OC(C)=O)CO[C@@H]1C[C@@H]2O [PTX, paclitaxel]
rate of tubulin polymerization: promoted | onset of tubulin polymerization (tubulin alone 15 min): approximately 5 minutes
